Results taken from US7875604B2, “Compounds that inhibit HIV particle formation” (University of Virginia Patent Foundation, priority 2004, dated 2011).

How the values were obtained:
[1] = tested on: U1 cells latently infected with HIV-1; test: U1 latency activation assay (TNF-α induced, supernatant reverse transcriptase); assay type: cell-based; conditions: U1 cell assay, analogs, Table 8
Procedure: U1 cells were obtained from the AIDS Research and Reference Reagent Program and maintained under standard culture conditions in RPMI 1640 supplemented with 10% fetal bovine serum (heat inactivated), 2 mM L-glutamine, 100 U/mL penicillin and 100 μg/mL streptomycin. U1 cells are derived from the histocytic leukemia cell line U937, and contain an integrated copy of a cytokine and/or phorbol inducible provirus (HIV-1IIIB). Cultures were maintained in such a way as to ensure exponential growth of the populations. Addition of TNF-α to the cell culture induces HIV-1, so that inhibition of virus production indicates an inhibition of a post-integration function of the HIV-1 life cycle. This is where an inhibitor of Rev function would be expected to act. […]
(§1) At the time of the assay, cells were collected by centrifugation and counted by hemacytometer. If cell viability by Trypan Blue dye exclusion was less than 70% the assay was terminated. The cells were adjusted to 5×10^4 cells/mL and 100 μL placed in 96 well plates with 100 μL media containing a final concentration of 5 ng/mL TNF-α and the test compound. Cultures were incubated for 3 days and supernatants harvested. Compound toxicity was determined by MTS dye reduction. Virus expression was measured by supernatant reverse transcriptase activity.
Reverse transcriptase was assayed to measure virus particle release as described above for the PBMC assay.
(§2) Compounds were tested in the U1 latency assay using the maximum high-test concentration possible based on the supplied stocks which are listed in table 3. Compounds were tested using the maximum high-test concentration possible based on the supplied stocks. Compounds were prepared at a 2× high-test concentration by combining drug stock with tissue culture media at a ratio of 5 μL of drug to 995 μL of media. This 2× high-test sample was subsequently serially diluted in tissue culture media using 1/2 log dilutions. This series of 2× concentrated drug was subsequently diluted 1:1 by combining with an equal volume of cells in media in the 96-well plates used for the assay. Temacrazine a known inhibitor of HIV transcription was used as a control compound that is active in the post-integration part of the HIV life cycle.
(§3) Compounds were tested using the maximum high-test concentration possible based on the supplied stocks. Compounds were prepared at a 2× high-test concentration by combining drug stock with tissue culture media at a ratio of 5 μL of drug to 995 μL of media. This 2× high-test (HT) sample was subsequently serially diluted in tissue culture media using 1/2 log dilutions. This series of 2× concentrated drug was subsequently diluted 1:1 by combining with an equal volume of cells in media in the 96-well plates used for the assay.

U1 cells = test: MTS staining for cell viability in U1 cell assay; assay type: cell-based; conditions: analogs, Table 8, MTS, read-out: TC50 (the source's name)
Procedure: as §1
At assay termination, the assay plates were stained with the soluble tetrazolium-based dye MTS (CellTiter 96 Reagent, Promega) to determine cell viability and quantify compound toxicity as described for the PBMC assay.
as §2, §3

Cc1n[nH]c2nc3ccc(Cl)cc3c(-c3ccccc3)c12 [Compound 111]
IC50 [1]: 1.7 µM | CC50 (U1 cells): > 50 µM

Cc1n[nH]c2nc3ccc(Br)cc3c(-c3ccccc3)c12 [Compound 112]
IC50 [1]: 1.08 µM | CC50 (U1 cells): > 50 µM

COc1cc2cc(C(=O)Nc3ccccc3)c(N)nc2cc1OC [Compound 113]
IC50 [1]: 27.4 µM | CC50 (U1 cells): > 75 µM

COc1cc2cc3c(=O)[nH]c(-c4ccc(C)cc4)nc3nc2cc1OC [Compound 114]
IC50 [1]: 14.4 µM | CC50 (U1 cells): > 75 µM

COc1ccc2nc3c(c(N)c2c1)CCCC3 [Compound 211]
IC50 [1]: 9.11 µM | CC50 (U1 cells): 48.5 µM

N#Cc1c(C(F)(F)F)nc2ccc(F)cc2c1N [Compound 212]
IC50 [1]: 0.484 µM | CC50 (U1 cells): 28.6 µM

Nc1c2c(nc3ccc([N+](=O)[O-])cc13)CCCC2=O [Compound 213]
IC50 [1]: 0.826 µM | CC50 (U1 cells): 58.6 µM

C=CCc1c(C)nc2ccc(OC)cc2c1N [Compound 214]
IC50 [1]: 9.19 µM | CC50 (U1 cells): > 75 µM

COc1ccc(-c2c(C(C)=O)c(C)nc3sc(C(N)=O)c(N)c23)cc1 [Compound 311]
IC50 [1]: 1.65 µM | CC50 (U1 cells): > 75 µM

CCc1c(C)nc2sc(C(=O)c3ccc(Cl)cc3)c(N)c2c1C [Compound 313]
IC50 [1]: > 50 µM | CC50 (U1 cells): > 50 µM

Cc1ccc2c(N)c(C(N)=O)sc2n1 [Compound 314]
IC50 [1]: 2.11 µM | CC50 (U1 cells): > 75 µM

Cc1nc2sc(C(N)=O)c(N)c2c(C)c1CC(=O)c1ccccc1 [Compound 315]
IC50 [1]: 0.75 µM | CC50 (U1 cells): > 75 µM

NC(=O)c1sc2nc(-c3cccnc3)ccc2c1N [Compound 316]
IC50 [1]: 23.4 µM | CC50 (U1 cells): > 75 µM

NC(=O)c1sc2nc(-c3cccs3)cc(C(F)(F)F)c2c1N [Compound 317]
IC50 [1]: > 75 µM | CC50 (U1 cells): > 75 µM

Cc1cc(C(F)(F)F)c2c(N)c(C(N)=O)sc2n1 [Compound 318]
IC50 [1]: < 0.237 µM | CC50 (U1 cells): > 75 µM

CN1CCc2nc3sc(C(N)=O)c(N)c3cc2C1 [Compound 319]
IC50 [1]: 20.2 µM | CC50 (U1 cells): > 37.5 µM

COCc1cc(C)nc2sc(C(N)=O)c(N)c12 [Compound 320]
IC50 [1]: 0.522 µM | CC50 (U1 cells): > 75 µM

NC(=O)c1sc2nc3c(cc2c1N)CCCC3 [Compound 321]
IC50 [1]: 1.94 µM | CC50 (U1 cells): > 75 µM

NC(=O)c1sc2nc(-c3cccs3)cc(-c3ccc(F)cc3)c2c1N [Compound 322]
IC50 [1]: 8.84 µM | CC50 (U1 cells): 17.4 µM

Cc1ccc(-c2cc(-c3ccccc3)nc3sc(C(N)=O)c(N)c23)cc1 [Compound 323]
IC50 [1]: 0.745 µM | CC50 (U1 cells): 22.6 µM

NC(=O)c1sc2nc3c(cc2c1N)CCC3 [Compound 324]
IC50 [1]: 2.19 µM | CC50 (U1 cells): > 75 µM

CN(C)c1ccnc2sc(C(N)=O)c(N)c12 [Compound 325]
IC50 [1]: 0.281 µM | CC50 (U1 cells): > 75 µM

CCOC(=O)c1c2c(nc3sc(C(N)=O)c(N)c13)CCCC2 [Compound 327]
IC50 [1]: 0.601 µM | CC50 (U1 cells): 65.8 µM

Cc1cc2c(N)c(C(N)=O)sc2nc1C [Compound 328]
IC50 [1]: 1.06 µM | CC50 (U1 cells): 37 µM

CCCc1ccc2c(N)c(C(N)=O)sc2n1 [Compound 329]
IC50 [1]: 2.03 µM | CC50 (U1 cells): 58.4 µM

Cc1cc2c(N)c(C(N)=O)sc2nc1-c1ccc(F)cc1 [Compound 330]
IC50 [1]: 6.91 µM | CC50 (U1 cells): > 75 µM

CCc1c(C)nc2sc(C(=O)NCC(=O)O)c(N)c2c1C [Compound 331]
IC50 [1]: 66 µM | CC50 (U1 cells): > 75 µM

Cc1ccc(-c2cc(C(F)(F)F)c3c(N)c(C(N)=O)sc3n2)cc1 [Compound 332]
IC50 [1]: > 75 µM | CC50 (U1 cells): 22.5 µM

NC(=O)c1sc2nc(Cc3ccccc3)cc(C(F)(F)F)c2c1N [Compound 334]
IC50 [1]: 2.37 µM | CC50 (U1 cells): > 75 µM

COc1ccc(-c2cc(-c3ccccc3)nc3sc(C(N)=O)c(N)c23)cc1 [Compound 335]
IC50 [1]: 1.41 µM | CC50 (U1 cells): 53.9 µM

CC1CCc2nc3sc(C(N)=O)c(N)c3cc2C1 (centres unmarked) [Compound 336]
IC50 [1]: 2.92 µM | CC50 (U1 cells): > 75 µM

NC(=O)c1sc2nc3ccccc3cc2c1N [Compound 337]
IC50 [1]: 2.4 µM | CC50 (U1 cells): > 75 µM

CCOC(=O)c1c(C)nc2sc(C(N)=O)c(N)c2c1-c1ccccc1 [Compound 338]
IC50 [1]: 5.23 µM | CC50 (U1 cells): > 75 µM

COc1ccc(-c2cc(-c3ccc(OC)cc3)c3c(N)c(C(N)=O)sc3n2)cc1 [Compound 339]
IC50 [1]: 1.28 µM | CC50 (U1 cells): 38.3 µM

CCOC(=O)c1sc(Cl)nc1C(F)(F)F [Compound 411]
IC50 [1]: > 75 µM | CC50 (U1 cells): > 75 µM

O=C(Nc1ccccc1)c1sc(Cl)nc1C(F)(F)F [Compound 412]
IC50 [1]: 16.7 µM | CC50 (U1 cells): 51.7 µM

O=C(Nc1cccc(F)c1)c1sc(Cl)nc1C(F)(F)F [Compound 413]
IC50 [1]: 20.7 µM | CC50 (U1 cells): 50.7 µM

O=C(Nc1cccc(C(F)(F)F)c1)c1sc(Cl)nc1C(F)(F)F [Compound 414]
IC50 [1]: 14.5 µM | CC50 (U1 cells): 14.7 µM

O=C(Nc1ccccc1F)c1sc(Cl)nc1C(F)(F)F [Compound 415]
IC50 [1]: 37.3 µM | CC50 (U1 cells): 51.2 µM

Cc1ccc(NC(=O)c2sc(Cl)nc2C)cc1C [Compound 416]
IC50 [1]: 0.767 µM | CC50 (U1 cells): > 75 µM

Cc1ccc(NC(=O)c2sc(Cl)nc2C)cc1 [Compound 417]
IC50 [1]: 1.62 µM | CC50 (U1 cells): 51.9 µM

Cc1nc(Cl)sc1C(=O)Nc1ccc(C(F)(F)F)cc1 [Compound 418]
IC50 [1]: 2.18 µM | CC50 (U1 cells): > 75 µM

Cc1nc(Cl)sc1C(=O)Nc1ccc(C(C)(C)C)cc1 [Compound 420]
IC50 [1]: 6.8 µM | CC50 (U1 cells): > 75 µM

N#Cc1ccc(NC(=O)c2sc(Cl)nc2-c2ccccc2)cc1 [Compound 421]
IC50 [1]: > 75 µM | CC50 (U1 cells): > 75 µM

Cc1ccc(NC(=O)c2sc(Cl)nc2-c2ccccc2)cc1C [Compound 422]
IC50 [1]: 14.3 µM | CC50 (U1 cells): > 75 µM

Cc1ccc(NC(=O)c2sc(Cl)nc2-c2ccccc2)c(C)c1 [Compound 423]
IC50 [1]: 42.4 µM | CC50 (U1 cells): > 75 µM

COc1ccccc1NC(=O)c1cc(Cl)nnc1Cl [Compound 511]
IC50 [1]: 14.3 µM | CC50 (U1 cells): 17.3 µM

O=C(c1cc(Cl)nnc1Cl)N1CCOCC1 [Compound 512]
IC50 [1]: 26.3 µM | CC50 (U1 cells): > 75 µM

CN1CCN(C(=O)c2cc(Cl)nnc2Cl)CC1 [Compound 513]
IC50 [1]: 7.05 µM | CC50 (U1 cells): > 75 µM

O=C(c1cc(Cl)nnc1Cl)N1CCCC1 [Compound 514]
IC50 [1]: > 75 µM | CC50 (U1 cells): > 75 µM

O=C(NCc1ccccn1)c1cc(Cl)nnc1Cl [Compound 515]
IC50 [1]: 13.6 µM | CC50 (U1 cells): > 75 µM

Oc1nc(S)ncc1-c1ccccc1 [Compound 612]
IC50 [1]: > 75 µM | CC50 (U1 cells): > 75 µM

Oc1nc(S)nc(O)c1-c1ccccc1 [Compound 613]
IC50 [1]: > 75 µM | CC50 (U1 cells): > 75 µM

O=[N+]([O-])c1ccc(-c2cnc(NO)nc2)cc1 [Compound 614]
IC50 [1]: > 75 µM | CC50 (U1 cells): > 75 µM

COc1ccc(-c2cnc(S(C)(=O)=O)nc2)cc1 [Compound 615]
IC50 [1]: 11.9 µM | CC50 (U1 cells): > 75 µM

CSc1ncc2c(n1)[nH]c1ccccc12 [Compound 616]
IC50 [1]: 0.915 µM | CC50 (U1 cells): > 75 µM

COc1ccc(-c2cnc(OC(C)(C)C)nc2OC(C)(C)C)cc1OC [Compound 617]
IC50 [1]: > 75 µM | CC50 (U1 cells): > 75 µM

COc1ccc(-c2cnc(OC(C)(C)C)nc2OC(C)(C)C)cc1 [Compound 618]
IC50 [1]: 18.3 µM | CC50 (U1 cells): 53.6 µM

Cc1cccc(-c2nc(Nc3ccc(I)cc3)c3ccccc3n2)c1 [Compound 718]
IC50 [1]: 47.2 µM | CC50 (U1 cells): 50.1 µM

Cc1ccc(Nc2ncnc3ccccc23)cc1C [Compound 719]
IC50 [1]: 1.73 µM | CC50 (U1 cells): > 75 µM

CCOC(=O)c1ccc(Nc2ncnc3ccccc23)cc1 [Compound 720]
IC50 [1]: 3.66 µM | CC50 (U1 cells): > 75 µM

FC(F)(F)c1cccc(Nc2nc(-c3ccccc3)nc3ccccc23)c1 [Compound 722]
IC50 [1]: 21.9 µM | CC50 (U1 cells): 35 µM

COC(=O)c1ccc(Nc2nc(-c3ccccc3Cl)nc3ccccc23)cc1 [Compound 728]
IC50 [1]: 13.4 µM | CC50 (U1 cells): 17.5 µM

Cc1ccc(-c2nc(Nc3ccc(I)cc3)c3ccccc3n2)cc1 [Compound 729]
IC50 [1]: > 75 µM | CC50 (U1 cells): > 75 µM

CCOc1ccccc1Nc1nc(-c2ccc(C)cc2)nc2ccccc12 [Compound 730]
IC50 [1]: > 75 µM | CC50 (U1 cells): > 75 µM

Clc1ccccc1Nc1nc(-c2ccc(Br)cc2)nc2ccccc12 [Compound 731]
IC50 [1]: 1.65 µM | CC50 (U1 cells): > 75 µM

Brc1ccc(Nc2nc(-c3ccncc3)nc3ccccc23)cc1 [Compound 734]
IC50 [1]: 4.07 µM | CC50 (U1 cells): > 12.5 µM
